Data: ChEMBL document CHEMBL4020711, “Synthesis and biological evaluation of neoglycosphingolipids” (Eur J Med Chem, 2017)
Active and inactive are the calls of the source. The calls are words filed in the database; no cut-off is given here.

Test system: B16
Experiment: Suppression of MMP-9 mRNA expression in mouse B16 cells at 1 uM after 24 hrs by qRT-PCR analysis
Type: functional, cell-based

Row | Structure (SMILES) | inhibition
1 | CCCCCCCCCCCCCCCCCCOC(=O)[C@H](COC(=O)CON(C)[C@@H]1O[C@H](CO)[C@@H](O[C@@H]2O[C@H](CO)[C@@H](O[C@H]3O[C@H](CO)[C@@H](O)[C@H](O)[C@H]3O)[C@H](O)[C@H]2O)[C@H](O)[C@H]1O)NC(=O)CCCCCCCCCCCCCCCCC | inactive
2 | CCCCCCCCCCCCCCCCCCOC(=O)CON(C)[C@@H]1O[C@H](CO)[C@@H](O)[C@H](O)[C@H]1O | inactive
3 | CCCCCCCCCCCCCCCCCCOC(=O)[C@H](COC(=O)CON(C)[C@@H]1O[C@H](CO)[C@H](O)[C@H](O)[C@H]1O)NC(=O)CCCCCCCCCCCCCCCCC | inactive

Test system: B16
Experiment: Upregulation of MMP-9 mRNA expression in mouse B16 cells at 25 uM after 24 hrs by qRT-PCR analysis
Type: functional, cell-based

Row | Structure (SMILES) | Activity
4 | CCCCCCCCCCCCCCCCCCOC(=O)[C@H](COC(=O)CON(C)[C@@H]1O[C@H](CO)[C@@H](O)[C@H](O)[C@H]1O)NC(=O)CCCCCCCCCCCCCCCCC | Active
5 | CCCCCCCCCCCCC/C=C/[C@H](O)[C@@H](CO[C@@H]1O[C@H](CO)[C@@H](O[C@@H]2O[C@H](CO)[C@H](O)[C@H](O[C@]3(C(=O)O)C[C@H](O)[C@@H](NC(C)=O)[C@H]([C@H](O)[C@H](O)CO)O3)[C@H]2O)[C@H](O)[C@H]1O)NC(=O)CCCCCCCCCCCCCCCCC | Active
6 | CCCCCCCCCCCCCCCCCCOC(=O)CON(C)[C@@H]1O[C@H](CO)[C@@H](O[C@@H]2O[C@H](CO)[C@@H](O[C@H]3O[C@H](CO)[C@@H](O)[C@H](O)[C@H]3O)[C@H](O)[C@H]2O)[C@H](O)[C@H]1O | Active
7 | CCCCCCCCCCCCCCCCCCOC(=O)[C@H](COC(=O)CON(C)[C@@H]1O[C@H](CO)[C@@H](O[C@@H]2O[C@H](CO)[C@H](O)[C@H](O)[C@H]2O)[C@H](O)[C@H]1O)NC(=O)CCCCCCCCCCCCCCCCC | Active
8 | CCCCCCCCCCCCCCCCCCOC(=O)[C@H](COC(=O)CON(C)[C@@H]1O[C@H](CO)[C@@H](O[C@@H]2O[C@H](CO)[C@H](O)[C@H](O[C@]3(C(=O)O)C[C@H](O)[C@@H](NC(C)=O)[C@H]([C@H](O)[C@H](O)CO)O3)[C@H]2O)[C@H](O)[C@H]1O)NC(=O)CCCCCCCCCCCCCCCCC | Active
9 | CCCCCCCCCCCCCCCCCCOC(=O)CON(C)[C@@H]1O[C@H](CO)[C@@H](O[C@@H]2O[C@H](CO)[C@H](O)[C@H](O)[C@H]2O)[C@H](O)[C@H]1O | Active
10 | CCCCCCCCCCCCCCCCCCOC(=O)CON(C)[C@@H]1O[C@H](CO)[C@H](O)[C@H](O)[C@H]1O | Active

Test system: B16
Experiment: Upregulation of MMP-9 mRNA expression in mouse B16 cells at 1 uM after 24 hrs by qRT-PCR analysis
Type: functional, cell-based

Row | Structure (SMILES) | Activity
11 | CCCCCCCCCCCCCCCCCCOC(=O)CON(C)[C@@H]1O[C@H](CO)[C@@H](O[C@@H]2O[C@H](CO)[C@H](O)[C@H](O[C@]3(C(=O)O)C[C@H](O)[C@@H](NC(C)=O)[C@H]([C@H](O)[C@H](O)CO)O3)[C@H]2O)[C@H](O)[C@H]1O | Active
